In patent publication US5593698A, “Suppression of proliferative response and induction of tolerance with polymorphic class II MHC allopeptides” (Autoimmune, Inc., priority 1993, dated 1997):

Each substance was assayed on LEW rats (assay: Delayed Type Hypersensitivity (DTH) response after immunization with allopeptides). Settings: LEW rats immunized in foot pad with 12.5 μg of one fragment and CFA; FIG. 5.
Type: in vivo, rat
Experimental: 4. Delayed Type Hypersensitivity (DTH) Response: LEW rats, used as responders, were immunized subcutaneously in the foot pad with 100 μg of the mixture of four RT1.B^u (50 μg) and four RT1.D^u (50 μg) peptides in complete Freund's adjuvant (12.5 μg of each peptide). These animals were challenged subcutaneously 2 weeks later in one ear with 10 μg of the peptide mixture and in the other ear with freshly prepared and irradiated (3000 Rads) splenocytes (10×10^6) from WF (RT1^u), syngeneic LEW (RT1^1), or third party BN (RT1^n). The DTH responses were measured with micrometer caliper (Mitutoyo, Japan) by a blinded observer as the delta ear thickness before and 2 days after the challenge (inches ×10^-2). Experiments were performed using 5 animals in each study group. P values were calculated using the student t-test.
These experiments investigate whether, in addition to polymorphism, the native location of the allopeptide, β-pleat vs. α-helix, may be an important determinant of immunogenicity and tolerogenicity in vivo. The immunogenicity and tolerogenicity of the individual allopeptide fragments were investigated. LEW rats, used as responders, were immunized subcutaneously in the foot pad with 12.5 μg of one of the four RT1.D (1-25, 20-44, 39-64, and 60-84) and four RT1.B (1-25, 20-44, 39-64, and 68-92) allopeptide fragments and CFA. DTH responses were then determined for each of the peptide fragments. […] In FIG. 5, "RT1D mix" and "RT1B mix" refers to animals immunized with a mixture of all four allopeptides. In FIG. 5 solid bars represent immunization with cells, hatched bars represent immunization with peptides. Bars represent the change in ear thickness in […] (mean±SEM).

Row | Substance | Immunogenicity of individual allopeptide fragments by DTH response
1 | RT1.B1: RT1.B allopeptide fragment 1-25, β-pleat (QRLRRDFLVQFKPYCYFTNGTQRIR) | immunogenic
2 | RT1.B2: RT1.B allopeptide fragment 20-44, β-pleat (GTQRIRNVIRYIYNREEYLRYDSDV) | immunogenic
3 | RT1.D1: RT1.D allopeptide fragment 1-25, β-pleat (RDPTPRFLGYLKPECHFYNGTNRVR) | immunogenic
4 | RT1.D2: RT1.D allopeptide fragment 20-44, β-pleat (GTNRVRLLARLIYNREEYARFDSDV) | immunogenic
